Data on one compound can be found in publication PMC12801355, “Peptide Amphiphiles Hitchhike on Endogenous Biomolecules for Enhanced Cancer Imaging and Therapy” (Advanced Materials (Deerfield Beach, Fla.), 2025).

Where a SMILES comes first, the peptide text is derived from it. The star is where a group is joined. Palmitoyl = CCCCCCCCCCCCCCCC(=O)*

Series [1] concerns the target T1, human plasma proteins (Homo sapiens, UniProt O14791).
T1 construct: incubated with 50% pooled human plasma at 37 °C for 2 h; from tissue; host or cells: pooled human plasma (50%)
T1 sequence (O14791 28-398): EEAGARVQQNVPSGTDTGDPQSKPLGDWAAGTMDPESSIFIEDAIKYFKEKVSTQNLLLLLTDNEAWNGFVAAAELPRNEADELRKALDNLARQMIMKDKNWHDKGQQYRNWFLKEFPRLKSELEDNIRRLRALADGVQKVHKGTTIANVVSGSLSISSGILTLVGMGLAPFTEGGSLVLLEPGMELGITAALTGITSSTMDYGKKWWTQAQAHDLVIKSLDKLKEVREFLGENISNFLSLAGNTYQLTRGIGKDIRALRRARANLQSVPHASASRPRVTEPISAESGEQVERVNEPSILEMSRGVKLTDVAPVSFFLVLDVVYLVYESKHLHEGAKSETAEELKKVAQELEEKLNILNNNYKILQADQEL
Kind of series: Mass spectrometry of proteins pulled down with biotinylated SA‐E (SA‐Eb) from human plasma. The series is classed as binding. As to the method:
(§1) Samples were prepared for mass spectrometry analysis via a pull‐down of a biotinylated version of the SA‐E probe (SA‐Eb, 100 µM) incubated with 50% pooled human plasma at 37 °C for 2 h. Before incubation with the SA‐Eb‐plasma mixture, magnetic streptavidin‐coated beads (Dynabeads MyOne Streptavidin T1, Invitrogen, 65601) were washed with PBS (10 mM, pH 7.4) then blocked with 1% casein equal to the total initial volume of beads for 15 min at room temperature. After blocking, beads were washed again with PBS. Beads were then combined with SA‐Eb‐plasma solution, 25 µL beads to 200 µL mixture. This mixture was then incubated at room temperature for 30 min. After incubation, the remaining solution was removed, and the beads were washed five times with PBS. Bound SA‐Eb was eluted from beads in 30 µL 0.5% Triton X‐100 solution. Magnetic beads were then removed, and the elution was collected for analysis. For plasma control, the incubation with SA‐Eb step was skipped, and 50% plasma in PBS was incubated with beads and washed and eluted using the same method as the SA‐Eb‐plasma solution. The elution solutions were then analyzed by the Proteomics Shared Resource facility at Oregon Health & Science University (See Supporting Information for details).
(§2) Sample Preparation. Eluted plasma samples were dried down and stored at -80°C. Samples were thawed at room temperature for 10 min, and 75 µL of SDS protein extraction buffer (5% SDS, 50 mM […]; TEAB) was added to each sample. Samples were shaken in a Thermo mixer for 10 minutes at room temperature and centrifuged at 10,000 g for 5 min. Each sample was transferred from a 0.5 mL tube to a 1.5 mL LoBind centrifuge tube. Samples were reduced by adding 3.4 µL of 0.5 M dithiothreitol and incubated at 95 °C for 10 min. Samples were alkylated by the addition of 6.8 µL of 0.5 M iodoacetamide and were incubated at room temperature for 30 min in the dark. Samples were then acidified by the addition of 8.52 µL of 12% phosphoric acid, and 562 µL of SDS protein binding buffer (90% methanol, 100 mM TEAB, pH 7.51). Samples were transferred 165 µL at a time to S-trap micro columns (Protifi, Farmingdale, NY) and inserted into 1.5 mL of polypropylene tubes. Samples were centrifuged at 4,000 g for 3 min between each addition of the sample. S-trap columns were washed 6 times using 150 µL of 90% methanol containing 100 mM of TEAB followed by centrifugation at 4,000g for 3 min between each wash step. S-trap columns containing the bound sample proteins were transferred to 1.5 mL LoBind centrifuge tubes and 40 µL of 80 ng/µL sequencing grade modified trypsin (Pierce TM Trypsin Protease MS-Grade, XG348166) in 50 mM TEAB was added. S-trap columns were loosely capped, and digestion was performed at 37°C overnight in a humidified chamber.
(§3) After completion of digestion, peptides were eluted by sequential addition of 40 µL of TEAB, 40 µL of 0.2% aqueous formic acid, and 40 µl of 50% acetonitrile, 0.2% formic acid, with centrifugation at 4,000 g for 4 min between each addition of elution buffer. The elution fractions were combined and then dried by vacuum centrifugation. Samples were reconstituted by adding 20 µL of 5% formic acid, shaking at 37 °C, and spinning at 15,000 g for 5 min. The supernatant of each sample was transferred to an auto-sample vial.
(§4) Data analysis. Mass spectrometry data from all samples were processed using COMET/PAWS against Uniprot_Human_database. Comet (v. 2016.01, rev. 3)^8 was used to search MS2 Spectra against a January 2023 version of canonical FASTA protein database containing human uniprot sequences, and concatenated sequence-reversed entries to estimate error thresholds and 179 common contaminant sequences and their reversed forms. The database processing was performed using python scripts available at https://github.com/pwilmart/fasta_utilities.git and Comet results were processed using the PAW pipeline2 from https://github.com/pwilmart/PAW_pipeline.git.

Series [2] concerns the target T2, human plasma proteins (Homo sapiens, UniProt P02652).
T2 construct: incubated with 50% pooled human plasma at 37 °C for 2 h; from tissue; host or cells: pooled human plasma (50%)
The series is described as above. The series is classed as binding. As to the method:
as §1, §2, §3, §4

The target in series [3] is T3, human plasma proteins (Homo sapiens, UniProt P02656).
T3 construct: incubated with 50% pooled human plasma at 37 °C for 2 h; from tissue; host or cells: pooled human plasma (50%)
T3 sequence (P02656 21-99): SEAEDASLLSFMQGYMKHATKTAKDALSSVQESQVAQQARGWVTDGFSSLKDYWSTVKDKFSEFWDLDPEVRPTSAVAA
The description is as above. The series is classed as binding. The procedure: as §1, §2, §3, §4

Series [4] deals with T4, human plasma proteins (Homo sapiens, UniProt P04114).
T4 construct: incubated with 50% pooled human plasma at 37 °C for 2 h; from tissue; host or cells: pooled human plasma (50%)
T4 sequence (P04114 28-4563): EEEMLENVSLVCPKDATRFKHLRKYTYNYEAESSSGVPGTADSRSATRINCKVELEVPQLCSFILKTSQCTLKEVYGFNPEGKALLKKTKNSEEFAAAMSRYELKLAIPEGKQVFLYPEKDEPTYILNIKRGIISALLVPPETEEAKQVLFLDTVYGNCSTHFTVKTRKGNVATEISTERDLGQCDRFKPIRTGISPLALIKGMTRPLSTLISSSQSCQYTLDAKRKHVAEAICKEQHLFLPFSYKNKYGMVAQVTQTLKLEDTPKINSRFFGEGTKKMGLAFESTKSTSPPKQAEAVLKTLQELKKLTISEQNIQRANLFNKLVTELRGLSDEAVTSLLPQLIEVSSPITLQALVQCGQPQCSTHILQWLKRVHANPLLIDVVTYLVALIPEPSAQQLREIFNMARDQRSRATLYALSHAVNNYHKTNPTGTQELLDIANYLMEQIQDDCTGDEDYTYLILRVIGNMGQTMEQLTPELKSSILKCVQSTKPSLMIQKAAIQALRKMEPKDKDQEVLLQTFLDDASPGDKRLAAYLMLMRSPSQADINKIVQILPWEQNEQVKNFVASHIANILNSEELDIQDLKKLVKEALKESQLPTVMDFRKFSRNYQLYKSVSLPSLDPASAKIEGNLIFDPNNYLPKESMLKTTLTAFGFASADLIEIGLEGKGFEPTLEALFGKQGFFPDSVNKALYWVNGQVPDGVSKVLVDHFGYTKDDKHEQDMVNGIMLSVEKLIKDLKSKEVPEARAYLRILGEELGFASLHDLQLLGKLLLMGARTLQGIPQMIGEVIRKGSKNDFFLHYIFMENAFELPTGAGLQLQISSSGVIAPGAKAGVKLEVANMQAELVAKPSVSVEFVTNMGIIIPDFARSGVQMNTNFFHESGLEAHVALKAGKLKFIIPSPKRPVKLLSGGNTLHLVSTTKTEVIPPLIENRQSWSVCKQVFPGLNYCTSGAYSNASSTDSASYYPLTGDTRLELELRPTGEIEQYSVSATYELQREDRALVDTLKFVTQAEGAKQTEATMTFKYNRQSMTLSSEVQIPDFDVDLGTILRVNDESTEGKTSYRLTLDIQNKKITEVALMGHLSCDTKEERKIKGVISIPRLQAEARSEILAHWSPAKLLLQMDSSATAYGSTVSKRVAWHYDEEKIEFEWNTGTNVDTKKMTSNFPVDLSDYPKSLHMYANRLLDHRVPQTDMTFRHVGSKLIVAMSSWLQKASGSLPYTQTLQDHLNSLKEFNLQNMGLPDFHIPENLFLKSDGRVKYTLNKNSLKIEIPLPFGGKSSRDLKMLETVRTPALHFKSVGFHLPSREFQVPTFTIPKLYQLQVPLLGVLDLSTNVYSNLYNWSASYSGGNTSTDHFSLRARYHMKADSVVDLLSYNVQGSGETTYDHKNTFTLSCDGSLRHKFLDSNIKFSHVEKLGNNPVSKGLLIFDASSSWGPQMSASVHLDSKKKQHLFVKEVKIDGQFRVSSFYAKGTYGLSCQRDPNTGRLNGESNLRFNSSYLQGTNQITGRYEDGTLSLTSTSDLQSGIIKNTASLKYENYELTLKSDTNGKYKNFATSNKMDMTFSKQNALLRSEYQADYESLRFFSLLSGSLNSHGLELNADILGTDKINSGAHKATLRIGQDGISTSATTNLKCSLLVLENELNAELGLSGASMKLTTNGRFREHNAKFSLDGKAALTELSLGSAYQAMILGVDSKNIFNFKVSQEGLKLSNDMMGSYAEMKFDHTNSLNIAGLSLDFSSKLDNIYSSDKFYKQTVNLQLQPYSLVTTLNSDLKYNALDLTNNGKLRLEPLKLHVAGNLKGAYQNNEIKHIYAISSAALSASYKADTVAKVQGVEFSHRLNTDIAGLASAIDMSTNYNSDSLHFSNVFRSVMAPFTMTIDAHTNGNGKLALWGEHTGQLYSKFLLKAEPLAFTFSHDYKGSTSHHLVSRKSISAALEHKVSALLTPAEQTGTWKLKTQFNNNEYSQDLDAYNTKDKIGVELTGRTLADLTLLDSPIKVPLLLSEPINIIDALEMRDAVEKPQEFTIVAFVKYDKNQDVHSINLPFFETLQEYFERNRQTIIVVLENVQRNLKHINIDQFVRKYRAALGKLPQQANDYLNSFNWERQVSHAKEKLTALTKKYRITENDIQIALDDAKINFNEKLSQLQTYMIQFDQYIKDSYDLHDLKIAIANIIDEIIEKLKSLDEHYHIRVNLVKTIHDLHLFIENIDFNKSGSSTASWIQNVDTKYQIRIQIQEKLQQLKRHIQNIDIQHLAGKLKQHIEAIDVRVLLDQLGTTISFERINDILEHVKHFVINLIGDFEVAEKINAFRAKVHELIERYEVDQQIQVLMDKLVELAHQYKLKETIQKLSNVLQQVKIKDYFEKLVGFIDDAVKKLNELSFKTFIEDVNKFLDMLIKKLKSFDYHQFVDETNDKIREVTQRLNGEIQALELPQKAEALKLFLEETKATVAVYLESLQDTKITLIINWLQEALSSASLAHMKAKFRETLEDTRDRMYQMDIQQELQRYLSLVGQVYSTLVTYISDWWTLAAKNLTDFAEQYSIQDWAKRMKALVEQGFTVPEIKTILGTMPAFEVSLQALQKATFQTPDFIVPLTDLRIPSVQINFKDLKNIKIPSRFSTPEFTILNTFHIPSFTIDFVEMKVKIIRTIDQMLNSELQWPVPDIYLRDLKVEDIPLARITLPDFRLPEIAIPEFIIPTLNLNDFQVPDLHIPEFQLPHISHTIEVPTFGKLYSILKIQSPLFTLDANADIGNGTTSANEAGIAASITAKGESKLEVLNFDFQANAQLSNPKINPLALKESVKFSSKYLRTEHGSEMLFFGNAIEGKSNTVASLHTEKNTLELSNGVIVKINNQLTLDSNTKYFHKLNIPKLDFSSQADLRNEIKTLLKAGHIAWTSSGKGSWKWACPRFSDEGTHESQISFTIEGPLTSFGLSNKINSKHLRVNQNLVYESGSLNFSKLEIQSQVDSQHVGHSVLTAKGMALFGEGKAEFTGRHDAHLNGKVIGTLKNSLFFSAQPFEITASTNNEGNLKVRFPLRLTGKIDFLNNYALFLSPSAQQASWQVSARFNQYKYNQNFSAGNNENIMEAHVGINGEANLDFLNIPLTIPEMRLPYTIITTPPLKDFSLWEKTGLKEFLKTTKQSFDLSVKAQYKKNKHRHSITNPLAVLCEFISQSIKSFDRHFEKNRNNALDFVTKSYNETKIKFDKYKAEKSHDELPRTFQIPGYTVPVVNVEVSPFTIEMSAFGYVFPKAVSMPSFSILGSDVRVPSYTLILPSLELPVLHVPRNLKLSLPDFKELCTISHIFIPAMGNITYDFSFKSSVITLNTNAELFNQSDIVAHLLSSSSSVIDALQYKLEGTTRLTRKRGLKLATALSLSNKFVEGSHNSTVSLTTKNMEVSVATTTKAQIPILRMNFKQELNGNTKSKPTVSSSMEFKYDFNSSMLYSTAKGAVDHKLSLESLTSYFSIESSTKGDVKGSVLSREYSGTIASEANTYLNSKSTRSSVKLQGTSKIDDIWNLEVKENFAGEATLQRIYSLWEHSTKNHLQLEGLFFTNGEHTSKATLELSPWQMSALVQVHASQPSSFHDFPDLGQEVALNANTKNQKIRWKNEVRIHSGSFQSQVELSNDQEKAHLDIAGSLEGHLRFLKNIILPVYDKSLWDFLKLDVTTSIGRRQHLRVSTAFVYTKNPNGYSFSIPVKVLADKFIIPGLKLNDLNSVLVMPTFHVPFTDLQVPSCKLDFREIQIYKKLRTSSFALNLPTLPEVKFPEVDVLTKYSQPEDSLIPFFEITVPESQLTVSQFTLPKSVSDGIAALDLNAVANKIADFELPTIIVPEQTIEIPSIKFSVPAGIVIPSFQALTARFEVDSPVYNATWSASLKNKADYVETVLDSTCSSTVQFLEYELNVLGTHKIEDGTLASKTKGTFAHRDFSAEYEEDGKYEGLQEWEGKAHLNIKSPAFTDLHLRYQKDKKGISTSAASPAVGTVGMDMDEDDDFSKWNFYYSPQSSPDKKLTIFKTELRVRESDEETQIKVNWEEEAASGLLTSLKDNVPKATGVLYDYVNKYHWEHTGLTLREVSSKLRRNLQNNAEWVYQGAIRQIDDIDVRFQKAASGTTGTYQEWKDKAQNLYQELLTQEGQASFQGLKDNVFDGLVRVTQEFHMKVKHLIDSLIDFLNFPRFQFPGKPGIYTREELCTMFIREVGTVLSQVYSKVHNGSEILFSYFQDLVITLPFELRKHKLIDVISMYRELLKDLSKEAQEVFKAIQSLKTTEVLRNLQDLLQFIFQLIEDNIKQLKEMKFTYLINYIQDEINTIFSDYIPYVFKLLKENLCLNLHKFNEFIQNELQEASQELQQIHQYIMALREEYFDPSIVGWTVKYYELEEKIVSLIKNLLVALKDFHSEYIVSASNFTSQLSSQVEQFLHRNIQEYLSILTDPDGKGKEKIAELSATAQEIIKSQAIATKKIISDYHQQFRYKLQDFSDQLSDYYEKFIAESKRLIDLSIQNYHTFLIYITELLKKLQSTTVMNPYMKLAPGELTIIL
Described as above. Format: binding. The procedure: as §1, §2, §3, §4

Another series deals with TRAMP‐C2 tumors. Kind of series: Tumor accumulation in wild type or SR‐B1‐/‐ tumors. Format: in vivo, mouse. The note with it: 50 nmol IV, 2 days. The procedure:
(§5) For tumor accumulation studies in subcutaneous (HCT‐116, A375, TRAMP‐C2, MC38, LLC1, RG2, PDX cell lines, wild type or SR‐B1 ‐/‐ TRAMP‐C2, and wild type or LDL‐R ‐/‐ HeLa), intradermal (A375), or fat pad (4T1 and MCF‐7) tumors, cells were implanted as described above. When the tumors reached a size around ≈0.3–1 cm, mice were injected intravenously with 100 µL of ICG conjugated PAs (in PBS, 0.5 mM) or free ICG (in PBS, 0.5 mM). After probe injections, mice were imaged using the IVIS Spectrum (PerkinElmer) with excitation and emission wavelengths of 745 and 820 nm, respectively, at the specified time points. Living Image (PerkinElmer) software was used for all analyses. For MMTV mice experiments, mice were injected intravenously weekly with SA‐E (100 µL PBS, 0.5 mM) between 71 and 85 days of age and imaged 2 days later in the IVIS. […] SA‐E was injected intravenously (100 µL PBS, 0.5 mM), 2 days later the intestinal tissue was harvested, washed, and analyzed in the IVIS for ICG.

Another series relates to HeLa tumors. Kind of series: Tumor accumulation in wild type or LDL‐R‐/‐ tumors. Format: in vivo, mouse. The note with it: 50 nmol IV, 2 days. As to the method:
as §5

T2 sequence (P02652 19-100): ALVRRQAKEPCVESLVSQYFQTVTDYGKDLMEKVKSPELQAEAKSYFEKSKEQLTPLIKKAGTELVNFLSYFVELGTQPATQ

Consider `CCCCCCCCCCCCCCCC(=O)NCC(=O)NCC(=O)NCC(=O)N[C@@H](Cc1c[nH]cn1)C(=O)N[C@@H](C)C(=O)N[C@@H](C)C(=O)N[C@@H](CC(N)=O)C(=O)NCC(=O)N[C@@H](CCC(=O)O)C(=O)N[C@@H](CCC(=O)O)C(=O)N[C@@H](CS)C(=O)N[C@@H](CCC(=O)O)C(=O)O` [SA‐E] (Palmitoyl-GGGHAANGEECE-OH), for which, on human plasma proteins [1] (replicate 1), the “Percentage, Apolipoprotein L1” value worked out at 0.2% and the “Total Counts, Apolipoprotein L1” value worked out at 7. Also, on human plasma proteins [1] (replicate 2), the “Percentage, Apolipoprotein L1” value is given as 0.2% and the “Total Counts, Apolipoprotein L1” value is on record as 7. In addition, on human plasma proteins [2] (replicate 1), the “Percentage, Apolipoprotein A-II” value is 0.2% and the “Total Counts, Apolipoprotein A-II” value amounted to 6. In addition, at human plasma proteins [2] (replicate 2), the “Percentage, Apolipoprotein A-II” value amounted to 0.2% and the “Total Counts, Apolipoprotein A-II” value turned out to be 6. Moreover, at human plasma proteins [3] (replicate 1), the “Percentage, Apolipoprotein C-III” value was 0.1% and the “Total Counts, Apolipoprotein C-III” value stood at 4. Further, at human plasma proteins [3] (replicate 2), the “Percentage, Apolipoprotein C-III” value was determined as 0.2% and the “Total Counts, Apolipoprotein C-III” value was 5. For the same compound, on human plasma proteins [4] (replicate 1), the “Percentage, Apolipoprotein B-100” value was 4.7% and the “Total Counts, Apolipoprotein B-100” value is given as 166. Besides, on human plasma proteins [4] (replicate 2), the “Percentage, Apolipoprotein B-100” value was 6.0% and the “Total Counts, Apolipoprotein B-100” value is 170. Moreover, the “tumor accumulation, SR‐B1 knockout versus wild type tumors” value with TRAMP‐C2 tumors was “not needed for tumor accumulation”. In addition, the “tumor accumulation, LDL‐R knockout versus wild type tumors” value in the series with HeLa tumors was “not needed for tumor accumulation”.
